Here are results for 2 compounds from US20130310421A1, “TREATMENT OF AMYLOID BETA AMYLOIDOSIS” (Temple University - Of The Commonwealth System of Higher …, priority 2012, published 2013).

“Also recorded” adds a separate entry of the source.

The subject of data set [1] is γ-secretase-mediated cleavage of Notch. Kind of data set: γ-secretase-mediated cleavage of Notch (NICD western blot) in transfected N2A-APPswe cells. In kind it is cell-based. The conditions noted are these: N2A-APPswe cells transfected with Myc-tagged mAE-Notch-1, 24-hour incubation vs vehicle. How it is done:
For transfection studies, N2A-APPswe cells were transfected with 1 μg Myc-tagged mAE-Notch-1 complementary DNA overnight (a generous gift from Dr. L. D'Adamio, Albert Einstein Medical College, NY) by using Lipofectamine 2000 (Invitrogen). The media were removed and fresh media containing MK-591, L685, 458 or vehicle was added. After a 24-hour incubation, cell lysates were collected and Notch intracellular domain (NICD) expression levels assayed by western blot analysis.
On the technique in general: A western blot detects proteins with antibodies after separation by electrophoresis.

Data set [2] deals with Tg2576 mice. The experiment in a line: General health and blood parameters of Tg2576 mice on chronic MK-591 diet. In kind it is in vivo, mouse. How it is done: The Tg2576 transgenic mice expressing human APP with the Swedish mutation (K670N/M671L) used in these studies were previously described (Pratico D et al. J Neurosci 2001, 21(12):4183-4187). The mice were genotyped by polymerase chain reaction (PCR) analysis using tail DNA and kept in a pathogen-free environment, one 12-hour light/dark cycle and had access to food and water ad libitum. All the experiments presented herein were performed with female mice. Starting at 7 months of age, mice were randomized to receive MK-591 (40 mg/kg weight) (n=11) or vehicle (n=9) in their chow diet for 8 months until they were 15 months old. Considering that each mouse eats on average 5 g/day of chow diet and the diet is formulated for 320 mg MK-591 pwer kg diet (Harlan Teklad, Wis., USA), the final dose of the active drug was approximately 40 mg/kg weight/day.
Starting at seven months of age Tg2576 mice were randomized to receive MK-591 (320 mg/kg diet) or vehicle in their chow diet for 8 months before being sacrificed. Considering that each mouse eats on average 5 g/day of chow diet, the final dose of the active drug was approximately 40 mg/kg weight/day. By the end of the study, body weight, total plasma cholesterol, triglycerides and blood cell counts were not different between the two groups (not shown).

In data set [3] the test system is 3xTg mice. Kind of data set: Electrophysiology of hippocampal slices (fEPSP, PPF, LTP) of 3xTg mice. In kind it is in vivo, mouse. To be noted: 3xTg-MK-591 mice, mean +/- SEM. As to the method: The 3xTg mice harboring a mutant amyloid precursor protein (APP; KM670/671NL), a human mutant PS1 (M146V) knockin, and tau (P301L) transgenes, wild type mice (WT), and mice genetically deficient for FLAPKO (FLAPKO) used in this study were reported previously (Oddo S et al. Neuron 2003, 39:409-421; Byrum R S et al. J Exp Med 1997, 185:1065-1075). All the animals were backcrossed 10 times on the same genetic background C57BL6/SJL. The FLAPKO mice were crossbred several times with 3xTg mice to obtain founder animals (3xTg/FLAPKO), which were then crossed with each other. The animals from these crosses were used for the studies. […]
Six month old mice (n=# slices/# animals): WT (n=23/8); 3xTg (n=21/7); 3xTg-FLAPKO (n=21/6); 3xTg plus MK-591 (n=10/3) were sacrificed by rapid decapitation and brains were put into ice-cold artificial cerebral spinal fluid (CSF) in which sucrose (248 mM) was substituted for NaCl. […] We recorded field excitatory postsynaptic potentials (fEPSPs) from the CAl stratum radiatum by using an extracellular glass pipette ([…]) filled with ACSF. […] Baseline was recorded for 20 mins prior to tetanization with pulses every 30 seconds. […] The fEPSP rise/slope (mV/ms) between 30 and 90% was measured offline using Clampfit 10.3 (Molecular Devices, LLC) and normalized to the mean rise/slope of the baseline. […]

Where [4] appears, read: MK-591 approximately 40 mg/kg weight/day for 8 months vs vehicle, end of study.
Where [5] appears, read: MK-591 approximately 40 mg/kg weight/day in chow for 8 months.

In the case of `CC(C)C[C@H](NC(=O)[C@H](Cc1ccccc1)C[C@@H](O)[C@H](Cc1ccccc1)NC(=O)OC(C)(C)C)C(=O)N[C@@H](Cc1ccccc1)C(N)=O` [L685,458], the “Notch intracellular domain (NICD) levels” value in data set [1] was “significant reduction”.

Turning to `CC(C)(C)Sc1c(CC(C)(C)C(=O)O)n(Cc2ccc(Cl)cc2)c2ccc(OCc3ccc4ccccc4n3)cc12` [MK-591, 3-[3-tert-butylsulfanyl-1-[(4-chlorophenyl)methyl]-5-(quinolin-2-ylmethoxy)indol-2-yl]-2,2,-dimethylpropanoic acid], in data set [2] (setting [4]), the blood cell counts result is reported as “not different”, the total plasma cholesterol entry was “not different” and the triglycerides result is “not different”. Moreover, in data set [2] (setting [5]), the overall general health entry was “No macroscopic effect” and the “post-mortem macroscopic pathology of organs (spleen, liver, thymus, ileum)” value is on record as “no sign of macroscopic pathology”. Also, in data set [2] (MK-591 approximately 40 mg/kg weight/day in chow for 8 months vs vehicle), the body weight entry was “no significant difference; also recorded: not different”. The “LTP magnitude as percentage of baseline, 0-10 minutes post-tetanus” value in data set [3] (n=10 slices, 3xTg 159.9%, WT 274.6%) is listed as 272.5%+/−13.2%. In addition, in data set [3] (3xTg 121.0%, WT 202.6%), the “LTP magnitude as percentage of baseline, 170-180 minutes post-tetanus” value worked out at 202.5%+/−9.4%.
